Where “and” joins values, the source holds several entries; their conditions need not be identical. Equal values may be shown once.
Columns and labels:
E. Coli = assay: MIC, E. Coli; format: cell-based; settings: 24 h;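 note: minimum inhibitory concentration determined in duplicate in 96-well plates, compounds given in 4% aqueous DMSO, with ampicillin and tetracycline as positive controls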
[1] = target: 16S ribosomal subunit RNA target; assay: Mass spectrometry based binding assay (FTICR), 16S
Experimental: In a typical experiment, 10 μL of an aqueous solution containing 100 mM ammonium acetate buffer, 2.5 or 5 μM of each RNA, and 33% isopropyl alcohol (to aid ion desolvation) was prepared with different concentrations of each ligand or ligand mixture. Samples were introduced into the electrospray ionization source (negative ionization mode) at 1 μL/min and ions were stored for 1 sec in an RF-only hexapole following desolvation. The abundances were integrated from the respective ions for free RNA and the ligand-RNA complex. The primary (1:1 RNA:ligand) and secondary (1:2 complex, if observed). […] The peak ratios were measured at each concentration, then a plot of complex/free RNA versus concentration of ligand added was fitted to a second (or higher) order binding polynomial to determine the KD.

[2] = test system: E. coli S30 bacterial extract (pBestLuc luciferase reporter); assay: Coupled bacterial transcription/translation assay; format: biochemical; settings: read-out: Trans/trans IC50
Experimental: The DNA template, pBestLuc™ (Promega), is a plasmid containing a reporter gene for firefly luciferase fused to a strong tac promoter and ribosome binding site. Messenger RNA from 1 μg pBestLuc is transcribed and translated in E. coli S30 bacterial extract in the presence or absence of test compound. Compounds are tested in a black 96 well microtiter plate with an assay volume of 35 μL. […] The transcription/translation reaction is incubated for 35 minutes at 37° C. followed by detection of functional luciferase with the addition of 30 μL LucLite™ (Packard). Light output is quantitated on a Packard TopCount.

S. Aureus = assay: MIC, S. Aureus; format: cell-based; settings: 24 h
[3] = test system: gentamicin sensitive Acinetobacter baumannii #2 from Walter Reed; assay: MIC, A. baumannii WReed 2; format: cell-based; settings: 24 h
S. aureus ATCC(13709) = assay: MIC, S. aureus ATCC 13709; format: cell-based; settings: 24 h
P. aurginosa ATCC(25416) = assay: MIC, P. aurginosa ATCC 25416; format: cell-based; settings: 24 h
P. vulgaris ATCC(8427) = settings: 24 h
Experimental: The MIC assays are carried out in 150 μL volume in duplicate in 96-well clear flat-bottom plates. The bacterial suspension from an overnight culture growth in appropriate medium is added to a solution of test compound in 4% DMSO in water. Final bacterial inoculum is approximately 10^5-10^6 CFU/well. […] Both ampicillin and tetracycline are used as antibiotic-positive controls in each screening assay for S. pyogenes, E. coli imp-, E. coli, S. aureus, E. faecalis, K. pneumoniae and P. vulgaris. Ciprofloxacin is used as an antibiotic positive control in each screening assay for P. aeruginosa.
The following compounds were prepared using methods illustrated in the previous examples. The compounds were also examined in standard bacterial assays against E. Coli, S. Aureus, P. aurginosa, K. pneumoniae, P. vulgaris, and A. baumannii to determine activities. Each of the bacterial cultures that are available from ATCC (www.atcc.org) is identified by its ATCC number. A. baumannii is gentamicin sensitive Acinetobacter baumannii #2 from Walter Reed.

E. coli ATCC (25922) = assay: MIC, E. coli ATCC 25922; format: cell-based; settings: 24 h
P. aurginosa ATCC(29248) = assay: MIC, P. aurginosa ATCC 29248; format: cell-based; settings: 24 h
[4] = test system: K. pneumoniae ATCC (10031); assay: MIC, K. pneumoniae ATCC 10031; format: cell-based; settings: 24 h
[5] = range between growth and complete inhibition

Row | Structure (SMILES) | MIC E. Coli. (E. Coli) | MIC S. Aureus (S. Aureus) | further results
1 | NCC1OC(OC2C(CO)OC(OC3C(O)C(N)CC(N)C3OC3OC(CO)C(O)C(O)C3N)C2OCCNC2CCCNC2)C(N)C(O)C1O (stereo not drawn) [IBIS00560725] | – | – | MIC E. Coli. (E. Coli; [5]): 1.5-3^ μM; Kd [1]: 110 nM; IC50 [2]: 80 nM; MIC S. Aureus (S. Aureus; [5]): 3 to 6 µM
2 | CC(C)CCCC(C)C1CCC2C3CCC4CC(NCCOC5C(OC6C(O)C(N)CC(N)C6OC6OC(CO)C(O)C(O)C6N)OC(CO)C5OC5OC(CN)C(O)C(O)C5N)CCC4(C)C3CCC12C (stereo not drawn) [IBIS00561952] | >10 µM | 2.5 to 5.0 µM | –
3 | NCC1OC(OC2C(CO)OC(OC3C(O)C(N)CC(N)C3OC3OC(CO)C(O)C(O)C3N)C2OCCN(CCCc2ccccc2)CCc2ccccc2)C(N)C(O)C1O (stereo not drawn) [IBIS00561969] | – | – | MIC A. baumannii WReed 2 [3]: 10 to 20 µM; MIC S. aureus ATCC(13709) (S. aureus ATCC(13709)): 0.6 to 1.2 µM; MIC P. aurginosa ATCC(25416) (P. aurginosa ATCC(25416)): 10 to 20 µM; MIC P. vulgaris ATCC(8427) (P. vulgaris ATCC(8427)): 10 to 20 µM; MIC E. coli ATCC (25922) (E. coli ATCC (25922)): 10 to 20 µM; MIC P. aurginosa ATCC(29248) (P. aurginosa ATCC(29248)): >40 µM; MIC K. pneumoniae ATCC (10031) [4]: 2.5 to 5.0 µM
4 | NCC1OC(OC2C(CO)OC(OC3C(O)C(N)CC(N)C3OC3OC(CO)C(O)C(O)C3N)C2OCCNc2ccccc2)C(N)C(O)C1O (stereo not drawn) [IBIS00560932] | 50 to 100 µM | 6 to 12 µM | –
5 | COc1cc(CCNCCOC2C(OC3C(O)C(N)CC(N)C3OC3OC(CO)C(O)C(O)C3N)OC(CO)C2OC2OC(CN)C(O)C(O)C2N)cc(OC)c1 (stereo not drawn) [IBIS00561192] | 10 to 20 µM | 5 to 10 µM | –
6 | NCC1OC(OC2C(CO)OC(OC3C(O)C(N)CC(N)C3OC3OC(CO)C(O)C(O)C3N)C2OCCNCCC2CC3CCC2C3)C(N)C(O)C1O (stereo not drawn) [IBIS00561951] | >10 µM | 5.0 to 10.0 µM | –
7 | NCC1OC(OC2C(CO)OC(OC3C(O)C(N)CC(N)C3OC3OC(CO)C(O)C(O)C3N)C2OCCNCCCc2ccccc2)C(N)C(O)C1O (stereo not drawn) [IBIS00561144] | 3 to 5 µM | 0.6 to 1.2 µM | –
8 | NCC1OC(OC2C(CO)OC(OC3C(O)C(N)CC(N)C3OC3OC(CO)C(O)C(O)C3N)C2OCCNC2CCCc3ccccc32)C(N)C(O)C1O (stereo not drawn) [IBIS00561950] | >10 µM | 1.25 to 2.5 µM | –
9 | NCC1OC(OC2C(CO)OC(OC3C(O)C(N)CC(N)C3OC3OC(CO)C(O)C(O)C3N)C2OCCNCCc2cc(C(F)(F)F)cc(C(F)(F)F)c2)C(N)C(O)C1O (stereo not drawn) [IBIS00561954] | >10 µM | 2.5 to 5.0 µM | –
10 | NCC1OC(OC2C(CO)OC(OC3C(O)C(N)CC(N)C3OC3OC(CO)C(O)C(O)C3N)C2OCCNCc2nc3ccccc3[nH]2)C(N)C(O)C1O (stereo not drawn) [IBIS00560797] | – | – | MIC E. Coli. (E. Coli; [5]): 6 to 12 µM; Kd [1]: 4100 nM; IC50 [2]: 340 nM; MIC S. Aureus (S. Aureus; [5]): 25 to 50 µM
11 | NCCNCCOC1C(OC2C(O)C(N)CC(N)C2OC2OC(CO)C(O)C(O)C2N)OC(CO)C1OC1OC(CN)C(O)C(O)C1N (stereo not drawn) [IBIS00560177] | – | – | MIC E. Coli. (E. Coli; [5]): 6 µM and 6 to 12 µM; IC50 [2]: 290 nM; MIC S. Aureus (S. Aureus; [5]): 2 µM and 2 to 3 µM
12 | NCC1OC(OC2C(CO)OC(OC3C(O)C(N)CC(N)C3OC3OC(CO)C(O)C(O)C3N)C2OCCNCCc2ccc(-c3ccccc3)cc2)C(N)C(O)C1O (stereo not drawn) [IBIS00561193] | 20 to 40 µM | 5 to 10 µM | –
13 | NCC1OC(OC2C(CO)OC(OC3C(O)C(N)CC(N)C3OC3OC(CO)C(O)C(O)C3N)C2OCCNc2ccccn2)C(N)C(O)C1O (stereo not drawn) [IBIS00561109] | 12 to 25 µM | 1 to 2 µM | –
